Laboratory results: patent US20240390383A1, “DIOXAZINES AND THEIR USE IN TREATMENT OF GBA-RELATED DISEASES” (ZEVRA DENMARK A/S, priority 2021, published 2024)

Target: T1, GCase (GBA) in human fibroblast cell line GM10915 harboring the L444P GBA mutation (Homo sapiens, UniProt P04062, L483P)
T1 construct: Human fibroblast cell line GM10915 harboring the L444P GBA mutation; host or cells: GM10915 human fibroblasts
T1 sequence (P04062 40-536 L483P): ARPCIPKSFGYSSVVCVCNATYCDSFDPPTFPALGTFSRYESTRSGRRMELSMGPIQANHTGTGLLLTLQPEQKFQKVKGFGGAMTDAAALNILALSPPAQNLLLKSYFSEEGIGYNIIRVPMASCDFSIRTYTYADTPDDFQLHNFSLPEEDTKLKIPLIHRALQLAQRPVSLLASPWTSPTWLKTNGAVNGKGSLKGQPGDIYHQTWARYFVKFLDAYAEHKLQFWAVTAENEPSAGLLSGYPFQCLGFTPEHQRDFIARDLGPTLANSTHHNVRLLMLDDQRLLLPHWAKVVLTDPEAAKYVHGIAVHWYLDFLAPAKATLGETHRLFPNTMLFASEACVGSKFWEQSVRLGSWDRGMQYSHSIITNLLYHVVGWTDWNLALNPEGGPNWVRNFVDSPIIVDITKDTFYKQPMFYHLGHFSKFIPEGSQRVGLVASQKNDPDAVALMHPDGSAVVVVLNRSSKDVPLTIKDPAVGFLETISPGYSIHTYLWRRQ
Assay: GCase activity assay (4-MUG substrate, normalised to crystal violet staining) in L444P GBA fibroblasts
Assay type: cell-based
Conditions: 5 days exposure; for GBA EC1.5: concentration giving 150% GCase activity (1.5-fold induction), 8-point dose range; for Emax: maximum percent GCase activity relative to untreated cells in the dose range tested
Procedure: Human fibroblast cell line GM10915 harboring the L444P GBA mutation was obtained from Coriell Biorepositories.
All chemicals (Glacial acetic acid, Glycine, 4-Methylumbelliferyl b-D-glucopyranoside (4-MUG), Sodium acetate trihydrate, Sodium hydroxide, Crystal violet, SDS, Ammonium hydroxide) were obtained from Sigma-Aldrich (Denmark) Compounds tested for GCase activity were dissolved in H2O or DMSO.
The GM10915 cell line was cultured under standard cell culture conditions (37° C. and 5% CO2) in complete DMEM medium supplemented with nonessential amino acids (NEAA), 1% Pen-Strep and 12% FCS. Cells were seeded at a density of 10^4 cells/well in 100 μL complete medium in one black 96-well plate for glucosylceramidase (GCase) activity measurement and in one clear 96-well plate for crystal violet staining to correct for cell density. Crystal violet staining is performed to obtain quantitative information about the relative density of cells adhering to multi-wells plates.
The assay was adapted from Sawkar et al (2002) and briefly described in the following. The day after seeding of cells, the medium was replaced with fresh medium containing the compounds to be tested. Compounds were tested in duplicate and in an 8-point diluted dose range to obtain a dose response. Cells were exposed with compounds for five days. Fresh compound was added every 2-3 days. PBS was included to define the basal level of GCase activity.
Cells were washed three times with 200 μL PBS per well and 50 μL of 2.5 mM 4-MUG buffer (4-MUG dissolved in 0.2 M acetate buffer pH 4.0) was added and the cells were incubated at 37° C., 5% CO2 for 23 hours. The reaction was stopped by adding 150 μL 0.2 M glycine buffer (pH 10.8). Fluorescence was measured with a Varioskan® Flash reader (Thermo Scientific) at an excitation/emission setting of 365/445 nm.
Cells were treated with compounds in a parallel setup identical to the setup to test for GCase activity. At the end of compound treatment, cells were washed once with 200 μL PBS per well and 50 μL 0.1% w/v crystal violet (in H2O) was added. Following 10 min. of incubation, the crystal violet solution was removed, and the cells were washed three times with 200 μL PBS and 100 μL 1% SDS was added to solubilize the stain. The plate was agitated on an orbital shaker for 10-30 min. Absorbance (A) is measured at […] using a Varioskan® Flash reader (Thermo Scientific).
The fluorescence signal (F) derived from the GCase measurement is normalized to the absorbance signal (A) derived from the crystal violet staining. The percent GCase activity resulting from compound treatment is calculated relative to the basal activity obtained from untreated cells.
Maximal effect of compounds (Emax) is determined from the dose response effects as the maximum “Percent GCase activity” achieved in the dose range tested.

SMILES | GBA EC1.5 [µM] | Emax [%]
CC1(C2=NOCC(CN3CCCCC3)O2)CCNC1 (racemic) [compound 465, rac-3-(3-methylpyrrolidin-3-yl)-5-(piperidin-1-ylmethyl)-5,6-dihydro-1,4,2-dioxazine] | 10 | 283
CC(C)(C1=NOCC(CN2CCCCC2)O1)C1CCCNC1 (racemic) [compound 473, rac-5-(piperidin-1-ylmethyl)-3-(2-(piperidin-3-yl)propan-2-yl)-5,6-dihydro-1,4,2-dioxazine di-2,2,2-trifluoroacetate] | 9 | 181
CC1(C2=NOCC(CN3CCCCC3)O2)CCCNC1 (racemic) [compound 476, rac-3-(3-methylpiperidin-3-yl)-5-(piperidin-1-ylmethyl)-5,6-dihydro-1,4,2-dioxazine] | 6 | 253
CC(C)(C1=NOCC(CN2CCCCC2)O1)C1CCNCC1 (racemic) [compound 477, rac-5-(piperidin-1-ylmethyl)-3-(2-(piperidin-4-yl)propan-2-yl)-5,6-dihydro-1,4,2-dioxazine di-2,2,2-trifluoroacetate] | 15 | 181
C1CCN(CC2CON=C(CC3CCNCC3)O2)CC1 (racemic) [compound 479, rac-5-(piperidin-1-ylmethyl)-3-(piperidin-4-ylmethyl)-5,6-dihydro-1,4,2-dioxazine] | 35 | 184
CC1(C2=NOCC(CN3CCCCC3)O2)CNCCO1 (racemic) [compound 480, rac-3-(2-methylmorpholin-2-yl)-5-(piperidin-1-ylmethyl)-5,6-dihydro-1,4,2-dioxazine] | 16 | 273
C1CCN(CC2CON=C([C@@]34CN[C@@H](CO3)C4)O2)CC1 (mixture of isomers) [compound 490, rac-(1R,4R)-1-(5-(piperidin-1-ylmethyl)-5,6-dihydro-1,4,2-dioxazin-3-yl)-2-oxa-5-azabicyclo[2.2.1]heptane] | 11 | 215
CC(C)(C1=NOCC(CN2CCCCC2)O1)C1CCNC1 (racemic) [compound 491, rac-5-(piperidin-1-ylmethyl)-3-(2-(pyrrolidin-3-yl)propan-2-yl)-5,6-dihydro-1,4,2-dioxazine] | 28 | 230
CC1(C2=NOCC(CN3CCNC(C(F)(F)F)CC3)O2)CCNCC1 (racemic) [compound 500, rac-3-(4-methylpiperidin-4-yl)-5-((5-(trifluoromethyl)-1,4-diazepan-1-yl)methyl)-5,6-dihydro-1,4,2-dioxazine] | 14 | 166
C1CCN(CC2CON=C(C3CCNC3)O2)CC1 (racemic) [compound 508, rac-5-(piperidin-1-ylmethyl)-3-(pyrrolidin-3-yl)-5,6-dihydro-1,4,2-dioxazine] | 17 | 226
C1CCN(CC2CON=C(C34CCCNCC3C4)O2)CC1 (racemic) [compound 519, rac-3-(3-azabicyclo[5.1.0]octan-7-yl)-5-(piperidin-1-ylmethyl)-5,6-dihydro-1,4,2-dioxazine] | 40 | 159
C1CCN(CC2CON=C(C3(C4CCNCC4)CC3)O2)CC1 (racemic) [compound 521, rac-5-(piperidin-1-ylmethyl)-3-(1-(piperidin-4-yl)cyclopropyl)-5,6-dihydro-1,4,2-dioxazine] | 19 | 336
C1CCN(CC2CON=C(C34CNC(C3)C4)O2)CC1 (racemic) [compound 527, rac-3-(2-azabicyclo[2.1.1]hexan-4-yl)-5-(piperidin-1-ylmethyl)-5,6-dihydro-1,4,2-dioxazine] | 26 | 187
Fc1cncc(CC2(C3=NOCC(CN4CCCCC4)O3)CCNCC2)c1 (racemic) [compound 528, rac-3-(4-((5-fluoropyridin-3-yl)methyl)piperidin-4-yl)-5-(piperidin-1-ylmethyl)-5,6-dihydro-1,4,2-dioxazine] | 6 | 181
CN1CCCC(C)(C2=NOCC(CN3CCCCC3)O2)C1 (racemic) [compound 529, rac-3-(1,3-dimethylpiperidin-3-yl)-5-(piperidin-1-ylmethyl)-5,6-dihydro-1,4,2-dioxazine] | 11 | 222

Other lines, results leading:

GBA EC1.5 [µM] | Emax [%] | SMILES
7 | 282 | CC1ON=C(C2(C)CCNCC2)OC1CN1CCCCC1 (racemic) [compound 531, rac-6-methyl-3-(4-methylpiperidin-4-yl)-5-(piperidin-1-ylmethyl)-5,6-dihydro-1,4,2-dioxazine]
18 | 253 | CN1CCC(C2=NOCC(CN3CCCCC3)O2)C1 (racemic) [compound 546, rac-3-(1-methylpyrrolidin-3-yl)-5-(piperidin-1-ylmethyl)-5,6-dihydro-1,4,2-dioxazine]
21 | 281 | C1CCN(CC2CON=C(C3C4CNC3C4)O2)CC1 (racemic) [compound 548, rac-3-(2-azabicyclo[2.1.1]hexan-5-yl)-5-(piperidin-1-ylmethyl)-5,6-dihydro-1,4,2-dioxazine]
36 | 232 | CC1(C2=NOCC(CN3CCCCC3)O2)CNC1 (racemic) [compound 549, rac-3-(3-methylazetidin-3-yl)-5-(piperidin-1-ylmethyl)-5,6-dihydro-1,4,2-dioxazine]
27 | 159 | c1cncc(CC2(C3=NOCC(CN4CCCCC4)O3)CCNCC2)c1 (racemic) [compound 550, rac-5-(piperidin-1-ylmethyl)-3-(4-(pyridin-3-ylmethyl)piperidin-4-yl)-5,6-dihydro-1,4,2-dioxazine]
4 | 341 | C1CCN(CC2CON=C(C34CCCN(CC3)C4)O2)CC1 (racemic) [compound 553, rac-3-(1-azabicyclo[3.2.1]octan-5-yl)-5-(piperidin-1-ylmethyl)-5,6-dihydro-1,4,2-dioxazine]
11 | 271 | C1CCN(CC2CON=C(CC3CCCNC3)O2)CC1 (racemic) [compound 554, rac-5-(piperidin-1-ylmethyl)-3-(piperidin-3-ylmethyl)-5,6-dihydro-1,4,2-dioxazine]
16 | 251 | CC1NCCC1C1=NOCC(CN2CCCCC2)O1 (racemic) [compound 559, rac-3-(2-methylpyrrolidin-3-yl)-5-(piperidin-1-ylmethyl)-5,6-dihydro-1,4,2-dioxazine]
8 | 244 | CC1CC(C2=NOCC(CN3CCCCC3)O2)CN1 (racemic) [compound 560, rac-3-(5-methylpyrrolidin-3-yl)-5-(piperidin-1-ylmethyl)-5,6-dihydro-1,4,2-dioxazine]
5 | 184 | Cc1ncccc1CC1(C2=NOCC(CN3CCCCC3)O2)CCNCC1 (racemic) [compound 561, rac-3-(4-((2-methylpyridin-3-yl)methyl)piperidin-4-yl)-5-(piperidin-1-ylmethyl)-5,6-dihydro-1,4,2-dioxazine]
37 | 168 | COC1CNC(C)(C2=NOCC(CN3CCCCC3)O2)C1 (racemic) [compound 565, rac-3-(4-methoxy-2-methylpyrrolidin-2-yl)-5-(piperidin-1-ylmethyl)-5,6-dihydro-1,4,2-dioxazine]
